Measured values reported in patent US10213415B2, “Compounds as opioid receptor modulators” (JANSSEN PHARMACEUTICA NV, priority 2004, dated 2019).
pEC50, pKi: −log10 of the molar value. Several values for one entry are separate records, joined by “and”; a condition that tells them apart may be missing. Identical values can stand only once. Like-named read-outs stand apart in the source and are kept apart here.

Columns and labels:
[1] = target: T1, mu opioid receptor (CHO-hMOR cell membranes) (Homo sapiens, UniProt P35372); test: Mu Opioid Receptor Functional Assay: [35S]GTPγS Binding in CHO-hMOR Cell Membranes, Versions 1 and 2; assay type: biochemical; conditions: for MOR GTP binding assay_v2 (% I): version 2, % inhibition of agonist-stimulated GTPγS binding; for pEC50: version 2, read-out: MOR GTP binding assay v2 EC50; for MOR GTP binding assay_v1 (% I): version 1, % inhibition of agonist-stimulated GTPγS binding; for MOR GTP assay_v1 % of Basal: version 1, basal binding = 100%
T1 construct: purchased Receptor Biology, Inc. (Baltimore, Md.); host or cells: CHO cells (recombinant expression)
T1 sequence (P35372 whole entry): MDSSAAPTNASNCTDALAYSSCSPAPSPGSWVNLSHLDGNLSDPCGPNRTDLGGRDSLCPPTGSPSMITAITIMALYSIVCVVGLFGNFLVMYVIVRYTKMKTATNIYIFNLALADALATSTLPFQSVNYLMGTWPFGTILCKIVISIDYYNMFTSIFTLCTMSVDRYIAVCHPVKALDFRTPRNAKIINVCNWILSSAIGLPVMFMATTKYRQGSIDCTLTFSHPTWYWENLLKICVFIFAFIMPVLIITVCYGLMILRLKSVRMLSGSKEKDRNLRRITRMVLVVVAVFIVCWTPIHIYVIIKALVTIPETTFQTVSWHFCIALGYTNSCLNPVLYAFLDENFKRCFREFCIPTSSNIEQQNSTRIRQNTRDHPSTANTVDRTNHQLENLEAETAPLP
Method in brief: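 Agonist-stimulated [35S]GTPγS (0.5 nM) binding measured by SPA in human MOR CHO membranes, buffer pH 7.6 with 100 mM NaCl, 5 mM MgCl2. Antagonist mode: % inhibition of stimulation by 1 μM SNC80; agonist mode: EC50 fitted. Basal binding without agonist, non-specific with 10 μM cold GTPγS.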

human mu opioid receptor = target: T2, human mu opioid receptor (Homo sapiens, UniProt P35372); test: Human Mu Opioid Receptor Binding Assay (CHO membranes, 3H-Damgo)
T2 construct: purchased Perkin Elmer RBHOMM400UA; host or cells: Chinese Hamster Ovary cells (recombinant expression)
T2 sequence (P35372 whole entry): as above
Method in brief: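 Radioligand displacement of ³H-Damgo (diluted to 3.6 nM pre-mix) from recombinant human mu receptor in CHO membranes, 2 h, room temperature, 50 mM Tris pH 7.5 with 5 mM MgCl2. Bound label read by filtration and scintillation counting; 1 μM unlabelled Damgo defines nonspecific binding.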

mu opioid receptor = target: T3, mu opioid receptor (Rattus norvegicus, UniProt P33535); test: Rat Brain Mu Opioid Receptor Binding Assay (and Version 2a, [3H]DAMGO); conditions: rat forebrain membranes, margin of error 10-20%
T3 construct: from tissue; host or cells: forebrain of male Wistar rats
T3 sequence (P33535 whole entry): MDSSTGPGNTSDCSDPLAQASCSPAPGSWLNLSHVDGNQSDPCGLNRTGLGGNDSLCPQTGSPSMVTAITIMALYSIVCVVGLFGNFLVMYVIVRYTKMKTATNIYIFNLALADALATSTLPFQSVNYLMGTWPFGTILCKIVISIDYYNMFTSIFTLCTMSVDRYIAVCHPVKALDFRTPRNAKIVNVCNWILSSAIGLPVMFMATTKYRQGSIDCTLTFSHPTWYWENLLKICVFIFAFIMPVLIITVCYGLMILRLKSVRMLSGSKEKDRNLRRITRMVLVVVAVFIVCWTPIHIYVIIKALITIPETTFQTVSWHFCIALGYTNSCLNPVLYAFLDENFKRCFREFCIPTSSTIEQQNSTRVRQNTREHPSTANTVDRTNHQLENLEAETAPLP
Method in brief: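 Displacement of the mu-selective radioligand [3H]DAMGO (0.8 nM) measured by filtration and scintillation counting after 2.5 h at 25° C. Membranes came from male Wistar rat forebrain in Tris-HCl (50 mM, pH 7.4) plus 5 mM MgCl2; Ki derived from concentration–response, % inhibition for single doses.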

SMILES	MOR GTP binding assay_v2 (% I) [1] [%]	pEC50 [1]	pKi (human mu opioid receptor; read-out: hKi μ)	pKi (mu opioid receptor; read-out: r Ki μ)	MOR GTP binding assay_v1 (% I) [1] [%]	MOR GTP assay_v1 % of Basal [1] [%]	pKi (human mu opioid receptor; hKi μ)	pKi (mu opioid receptor; r Ki μ)
Cc1cc(C(N)=O)cc(C)c1C[C@H](N)C(=O)N(Cc1cccc(C(=O)O)c1)[C@@H](C)c1nc(-c2ccccc2)c[nH]1 [Cpd 227]	36.00	7.22	8.72	9.02				
COC(=O)c1cc(CN(C(=O)[C@@H](N)Cc2c(C)cc(C(N)=O)cc2C)[C@@H](C)c2nc(-c3ccccc3)c[nH]2)ccc1OC [Cpd 17]	8.71	8.60	8.66	9.66				
CC(C)N(C(=O)[C@@H](N)Cc1ccc(O)cc1)[C@@H](C)c1nc(-c2ccccc2)c[nH]1 [Cpd 225]			8.85	9.14	1.00	657.00		
Cc1cc(O)cc(C)c1C[C@H](N)C(=O)N(Cc1nc(-c2ccccc2)c[nH]1)CC1CC1 [Cpd 192]			9.21	10.05	30.00	383.00		
Cc1cc(O)cc(C)c1C[C@H](N)C(=O)N(Cc1nc(-c2ccc(F)cc2)c(C)[nH]1)C(C)C [Cpd 163]			9.17	10.52	1.00			
CCN(C(=O)[C@@H](N)Cc1ccc(O)cc1)[C@@H](C)c1nc(-c2ccccc2)c[nH]1 [Cpd 215]			8.82	9.37	1.00	606.00		
Cc1cc(O)cc(C)c1C[C@H](N)C(=O)N(Cc1ccccc1)[C@@H](C)c1nc(-c2ccccc2)c[nH]1 [Cpd 218]			8.41	10.52	1.00	599.00		
Cc1ccccc1-c1nc(CN(C(=O)[C@@H](N)Cc2c(C)cc(O)cc2C)C(C)C)[nH]c1C [Cpd 165]			9.35	10.15	1.00			
CC(C)N(Cc1nc(-c2ccccc2)c[nH]1)C(=O)[C@@H](N)Cc1ccc(O)cc1 [Cpd 195]			8.01	8.03	34.00	378.00		
Cc1cc(O)cc(C)c1C[C@H](N)C(=O)N(C)[C@H](C)c1nc(-c2ccccc2)c[nH]1 [Cpd 206]				9.70	1.00	446.00		
COc1ccc(CN(C(=O)[C@@H](N)Cc2ccc(O)cc2)[C@@H](C)c2nc(-c3ccccc3)c[nH]2)cc1C(=O)O [Cpd 261]	5.88	7.77	8.59 and 8.89	9.10				
COC(=O)c1ccc(CN(C(=O)[C@@H](N)Cc2c(C)cc(C(N)=O)cc2C)[C@@H](C)c2nc(-c3ccccc3)c[nH]2)o1 [Cpd 257]	10.96	8.41	8.47	8.91				
COc1ccc(CN(C(=O)[C@@H](N)Cc2c(C)cc(C(N)=O)cc2C)[C@@H](C)c2nc(-c3ccc(I)cc3)c[nH]2)cc1C(=O)O [Cpd 289]			8.66	9.60				
Cc1cc(O)cc(C)c1C[C@H](N)C(=O)N(C)Cc1nc(-c2ccccc2)c[nH]1 [Cpd 199]			9.54	9.52	11.00	465.00		
Cc1cc(O)cc(C)c1C[C@H](N)C(=O)N(Cc1nc(-c2ccccc2)c(C)[nH]1)C(C)C [Cpd 166]			9.41 and 9.30	10.52 and 10.15	1.00			
CCN(C(=O)[C@@H](N)Cc1c(C)cc(O)cc1C)[C@H](C)c1nc(-c2ccccc2)c[nH]1 [Cpd 217]				8.97	1.00	599.00		
Cc1cc(C(N)=O)cc(C)c1C[C@H](N)C(=O)N(Cc1ccc(C(=O)O)o1)[C@@H](C)c1nc(-c2ccccc2)c[nH]1 [Cpd 256]	29.40	7.89	8.70	8.15				
Cc1cc(O)cc(C)c1C[C@H](N)C(=O)N(Cc1nc(-c2ccccc2)c[nH]1)C1CCCCC1 [Cpd 190]				8.58	70.00			
COc1ccc(CN(C(=O)[C@@H](N)Cc2ccc(C(N)=O)cc2)[C@@H](C)c2nc(-c3ccccc3)c[nH]2)cc1C(=O)O [Cpd 4]			8.26	8.62				
Cc1cc(O)cc(C)c1C[C@H](N)C(=O)N(Cc1nc(-c2cc(C(F)(F)F)cc(C(F)(F)F)c2)c(C)[nH]1)C(C)C [Cpd 164]			7.79	9.42	1.00			

SMILES	MOR GTP binding assay_v2 (% I) [1] [%]	pEC50 [1]	pKi (human mu opioid receptor; read-out: hKi μ)	pKi (mu opioid receptor; read-out: r Ki μ)	MOR GTP binding assay_v1 (% I) [1] [%]	MOR GTP assay_v1 % of Basal [1] [%]	pKi (human mu opioid receptor; hKi μ)	pKi (mu opioid receptor; r Ki μ)
Cc1cc(C(N)=O)cc(C)c1C[C@H](N)C(=O)N(Cc1ccccc1)[C@@H](C)c1nc(-c2ccccc2)c[nH]1 [Cpd 114]			8.86	9.59	13.20	717.59		
C[C@H](c1nc(-c2ccccc2)c[nH]1)N(C)C(=O)[C@@H](N)Cc1ccc(C(N)=O)cc1 [Cpd 203]			7.86	7.54	20.00	331.00		
COc1ccc(CN(C(=O)[C@@H](N)Cc2c(C)cc(O)cc2C)[C@@H](C)c2nc(-c3ccccc3)c[nH]2)cc1C(=O)O [Cpd 260]	2.89	8.82	9.24	9.62				
Cc1cc(O)cc(C)c1C[C@H](N)C(=O)N(Cc1nc(-c2ccccc2)c[nH]1)C(C)C [Cpd 194]			9.89	10.22	1.00	558.00		
CCN(C(=O)[C@@H](N)Cc1c(C)cc(O)cc1C)[C@@H](C)c1nc(-c2ccccc2)c[nH]1 [Cpd 216]				10.40	1.00	666.00		
Cc1cc(O)cc(C)c1C[C@H](N)C(=O)N(Cc1ccnc2ccccc12)[C@@H](C)c1nc(-c2ccccc2)c[nH]1 [Cpd 246]	21.30	8.35	8.25	9.82				
COc1ccc(CN(Cc2nc(-c3ccccc3)c[nH]2)C(=O)[C@@H](N)Cc2ccc(C(N)=O)cc2)cc1C(=O)O [Cpd 5]	7.87	7.15	8.41	8.92				
Cc1cc(O)cc(C)c1C[C@H](N)C(=O)N(Cc1cccc(C(=O)O)c1)[C@@H](C)c1nc(-c2ccccc2)c[nH]1 [Cpd 48]	24.53	8.66	9.40	9.85				
COC(=O)c1ccc(CN(C(=O)[C@@H](N)Cc2ccc(C(N)=O)cc2)[C@@H](C)c2nc(-c3ccccc3)c[nH]2)o1 [Cpd 303]	1.00	7.52	8.42	8.41				
COc1ccc(CN(C(=O)[C@@H](N)Cc2c(C)cc(C(N)=O)cc2C)[C@@H](C)c2nc(-c3ccccc3)c[nH]2)cc1-c1nnn[nH]1 [Cpd 8]	13.95	8.92	8.60 and 8.36	9.29				
Cc1cc(C(N)=O)cc(C)c1C[C@H](N)C(=O)N(Cc1cccc(-c2nnn[nH]2)c1)[C@@H](C)c1nc(-c2ccccc2)c[nH]1 [Cpd 242]			8.63	9.23				
Cc1cc(O)cc(C)c1C[C@H](N)C(=O)N(C)[C@@H](C)c1nc(Cc2ccccc2)c[nH]1 [Cpd 205]				9.85	1.00	566.00		
COc1ccc(CN(C(=O)[C@@H](N)Cc2c(C)cc(C(N)=O)cc2C)[C@@H](C)c2nc(-c3ccccc3)c[nH]2)cc1C(=O)O [Cpd 18]	7.54	9.00					8.77	9.12 and 8.96
Cc1cc(C(N)=O)cc(C)c1C[C@H](N)C(=O)N(Cc1ccc(C(=O)O)cc1)[C@@H](C)c1nc(-c2ccccc2)c[nH]1 [Cpd 50]			8.85	8.77				
C[C@H](c1nc(-c2ccccc2)c[nH]1)N(Cc1ccccc1)C(=O)[C@@H](N)Cc1ccc(O)cc1 [Cpd 221]			9.38	9.44	13.00	427.00		
CCN(C(=O)[C@@H](N)Cc1ccc(O)cc1)[C@H](C)c1nc(-c2ccccc2)c[nH]1 [Cpd 214]			7.54	7.36	3.00	295.00		
Cc1cc(O)cc(C)c1C[C@H](N)C(=O)N(C)[C@@H](C)c1nc(-c2ccccc2)c[nH]1 [Cpd 207]				10.30 and 10.10 and 10.00				
C[C@@H](c1nc(-c2ccccc2)c[nH]1)N(Cc1ccccc1)C(=O)[C@@H](N)Cc1ccc(O)cc1 [Cpd 219]			7.79	9.06	1.00	611.00		
COc1ccc(CN(C(=O)[C@@H](N)Cc2c(C)cc(C(N)=O)cc2C)[C@@H](C)c2nc(-c3ccccc3)c[nH]2)cc1OC [Cpd 75]			8.59	9.29				
